Test results taken from patent publication US9371331B2, “Modulators of methyl modifying enzymes, compositions and uses thereof” (Constellation Pharmaceuticals, Inc., priority 2012, dated 2016).
Where two headings read alike, the source gives them in different places.

Legend:
[1] = target: EZH2 (rPRC2) (Homo sapiens, UniProt Q15910); assay: EZH2 assay: rPRC2, biotinylated oligonucleosomes, 3H SAM methyl transfer (FlashPlate scintillation); type: biochemical; conditions: biotinylated oligonucleosome substrate
Sequence of EZH2 (rPRC2) (Q15910 whole entry): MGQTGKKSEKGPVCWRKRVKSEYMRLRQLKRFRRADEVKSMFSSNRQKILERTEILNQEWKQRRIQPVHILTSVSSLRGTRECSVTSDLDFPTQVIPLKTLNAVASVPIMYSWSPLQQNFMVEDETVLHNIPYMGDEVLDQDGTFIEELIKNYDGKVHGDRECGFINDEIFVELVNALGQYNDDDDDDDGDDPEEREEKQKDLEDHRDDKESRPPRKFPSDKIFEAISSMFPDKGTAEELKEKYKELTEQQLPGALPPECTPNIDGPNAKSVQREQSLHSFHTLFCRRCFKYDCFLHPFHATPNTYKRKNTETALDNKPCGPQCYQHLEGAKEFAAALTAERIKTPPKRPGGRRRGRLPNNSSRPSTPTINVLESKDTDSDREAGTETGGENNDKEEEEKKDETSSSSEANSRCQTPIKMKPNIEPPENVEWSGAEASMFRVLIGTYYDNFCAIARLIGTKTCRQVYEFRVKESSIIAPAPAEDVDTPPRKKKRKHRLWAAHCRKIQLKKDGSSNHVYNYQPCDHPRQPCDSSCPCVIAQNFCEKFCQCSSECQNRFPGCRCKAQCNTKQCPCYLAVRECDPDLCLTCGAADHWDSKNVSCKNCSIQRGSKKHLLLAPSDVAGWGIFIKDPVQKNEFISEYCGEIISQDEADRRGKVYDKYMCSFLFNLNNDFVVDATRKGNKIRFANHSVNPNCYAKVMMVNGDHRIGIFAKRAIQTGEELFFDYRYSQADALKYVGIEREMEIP
Sequence of EZH2 (rPRC2) (O75530 whole entry partner): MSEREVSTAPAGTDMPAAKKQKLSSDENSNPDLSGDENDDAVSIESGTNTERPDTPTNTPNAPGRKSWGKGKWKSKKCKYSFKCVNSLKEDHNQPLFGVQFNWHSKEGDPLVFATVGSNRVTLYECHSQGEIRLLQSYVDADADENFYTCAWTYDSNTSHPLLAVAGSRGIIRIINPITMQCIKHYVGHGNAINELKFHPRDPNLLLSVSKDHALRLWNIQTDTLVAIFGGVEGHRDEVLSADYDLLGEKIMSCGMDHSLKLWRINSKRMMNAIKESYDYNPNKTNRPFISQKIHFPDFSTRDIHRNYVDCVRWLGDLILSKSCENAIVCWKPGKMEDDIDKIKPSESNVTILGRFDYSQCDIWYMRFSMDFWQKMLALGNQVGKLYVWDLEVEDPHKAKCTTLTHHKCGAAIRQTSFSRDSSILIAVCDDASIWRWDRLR
Sequence of EZH2 (rPRC2) (Q15022 whole entry partner): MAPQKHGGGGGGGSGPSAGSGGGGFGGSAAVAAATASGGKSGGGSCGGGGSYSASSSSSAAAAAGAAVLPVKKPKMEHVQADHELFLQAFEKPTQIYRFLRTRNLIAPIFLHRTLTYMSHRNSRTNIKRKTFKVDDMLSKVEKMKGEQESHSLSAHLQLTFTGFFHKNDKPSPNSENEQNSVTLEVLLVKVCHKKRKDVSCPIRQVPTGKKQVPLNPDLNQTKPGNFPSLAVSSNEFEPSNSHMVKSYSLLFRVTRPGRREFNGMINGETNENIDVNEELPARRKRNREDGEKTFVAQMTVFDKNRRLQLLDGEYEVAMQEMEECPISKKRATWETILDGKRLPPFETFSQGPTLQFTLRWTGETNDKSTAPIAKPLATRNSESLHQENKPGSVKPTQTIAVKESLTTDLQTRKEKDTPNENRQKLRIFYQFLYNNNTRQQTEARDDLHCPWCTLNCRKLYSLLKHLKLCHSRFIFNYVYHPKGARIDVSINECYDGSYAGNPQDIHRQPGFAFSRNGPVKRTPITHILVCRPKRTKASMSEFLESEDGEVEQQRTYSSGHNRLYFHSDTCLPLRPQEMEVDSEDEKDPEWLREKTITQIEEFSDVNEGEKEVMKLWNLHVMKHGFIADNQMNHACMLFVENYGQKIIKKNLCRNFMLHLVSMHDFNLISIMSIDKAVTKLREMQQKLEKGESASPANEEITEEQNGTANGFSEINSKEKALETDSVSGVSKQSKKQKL

[2] = target: Y641N EZH2 (Homo sapiens, UniProt Q15910, Y641N); assay: Y641N EZH2 assay: as EZH2 assay, with reconstituted H3K27Me2 oligonucleosomes as substrate; type: biochemical
Sequence of Y641N EZH2 (Q15910 whole entry Y641N): as the sequence (Q15910 whole entry) above, with Y641N counted along it
Sequence of Y641N EZH2 (O75530 whole entry partner): as the sequence (O75530 whole entry partner) above
Sequence of Y641N EZH2 (Q15022 whole entry partner): as the sequence (Q15022 whole entry partner) above

[3] = EZH2 IC50, wild-type EZH2 (rPRC2)
[4] = Y641N EZH2 IC50, Y641N mutant EZH2, H3K27Me2 oligonucleosome substrate
[5] = wild-type EZH2 (rPRC2), read-out: EZH2 IC50
[6] = Y641N mutant EZH2, H3K27Me2 oligonucleosome substrate, read-out: Y641N EZH2 IC50
[7] = Y641N mutant EZH2, H3K27Me2 oligonucleosome substrate

Structure (SMILES) | IC50 [1, 3] [nM] | IC50 [2, 4] [nM] | further results
COC[C@H](C)n1c(C)c(C(=O)NCc2c(OC)cc(C)[nH]c2=O)c2cncnc21 [Compound 287, (S)-N-((4-methoxy-6-methyl-2-oxo-1,2-dihydropyridin-3-yl)methyl)-7-(1-methoxypropan-2-yl)-6-methyl-7H-pyrrolo[2,3-d]pyrimidine-5-carboxamide] | 100 to 1000 | 1000 to 10000 | –
Cc1cc(C)c(CNC(=O)c2c(C)n(C(C)Cn3ccccc3=O)c3ncccc23)c(=O)[nH]1 (racemic) [Compound 249, (±)-N-((4,6-dimethyl-2-oxo-1,2-dihydropyridin-3-yl)methyl)-2-methyl-1-(1-(2-oxopyridin-1(2H)-yl)propan-2-yl)-1H-pyrrolo[2,3-b]pyridine-3-carboxamide] | – | – | IC50 [1, 5]: 100 to 1000 nM; IC50 [2, 6]: 1000 to 10000 nM
COCCOC(C)C(C)n1c(C)c(C(=O)NCc2c(OC)cc(C)[nH]c2=O)c2cccnc21 (racemic) [Compound 297, (±)-N-((4-methoxy-6-methyl-2-oxo-1,2-dihydropyridin-3-yl)methyl)-1-(3-(2-methoxyethoxy)butan-2-yl)-2-methyl-1H-pyrrolo[2,3-b]pyridine-3-carboxamide 2,2,2-trifluoroacetate] | < 100 | 100 to 1000 | –
Cc1cc(C)c(CNC(=O)c2c(C)n([C@H](C)c3ccccc3)c3nc(Cl)ncc23)c(O)n1 [Compound 167] | 100 to 1000 | 100 to 1000 | –
Cc1cc(C)c(CNC(=O)c2c(C)n(C3CCOCC3)c3ncccc23)c(=O)[nH]1 [Compound 244, N-((4,6-dimethyl-2-oxo-1,2-dihydropyridin-3-yl)methyl)-2-methyl-1-(tetrahydro-2H-pyran-4-yl)-1H-pyrrolo[2,3-b]pyridine-3-carboxamide] | 100 to 1000 | 1000 to 10000 | –
CCC(OC)C(C)n1c(C)c(C(=O)NCc2c(OC)cc(C)[nH]c2=O)c2cccnc21 (stereo not shown) [Compound 293, N-((4-methoxy-6-methyl-2-oxo-1,2-dihydropyridin-3-yl)methyl)-1-(3-methoxypentan-2-yl)-2-methyl-1H-pyrrolo [2,3-b] pyridine-3-carboxamide] | < 100 | 100 to 1000 | –
CC[C@@H](C)n1c(C)c(C(=O)NCc2c(C)cc(C)[nH]c2=O)c2cnc(CO)nc21 [Compound 199, (R)-7-(sec-butyl)-N-((4,6-dimethyl-2-oxo-1,2-dihydropyridin-3-yl)methyl)-2-(hydroxymethyl)-6-methyl-7H-pyrrolo[2,3-d]pyrimidine-5-carboxamide] | – | – | IC50 [1, 5]: 100 to 1000 nM; IC50 [2, 6]: 1000 to 10000 nM
Cc1cc(C)c(CNC(=O)c2c(C)n(S(=O)(=O)N3CCCCC3)c3ncccc23)c(=O)[nH]1 [Compound 194, N-((4,6-dimethyl-2-oxo-1,2-dihydropyridin-3-yl)methyl)-2-methyl-1-(piperidin-1-ylsulfonyl)-1H-pyrrolo[2,3-b]pyridine-3-carboxamide] | – | – | IC50 [1, 5]: 100 to 1000 nM; IC50 [2, 6]: 1000 to 10000 nM
COc1cc(C)[nH]c(=O)c1CNC(=O)c1c(C)n(C(C)C(C)(C)OC)c2ccccc12 (racemic) [Compound 277, (±)-1-(3-methoxy-3-methylbutan-2-yl)-N-((4-methoxy-6-methyl-2-oxo-1,2-dihydropyridin-3-yl)methyl)-2-methyl-1H-indole-3-carboxamide] | < 100 | < 100 | –
Cc1cc(C)c(CNC(=O)c2nn(C(C)c3ccccc3)c3ccccc23)c(O)n1 (stereo not shown) [Compound 112, N-((2-hydroxy-4,6-dimethylpyridin-3-yl)methyl)-1-(1-phenylethyl)-1H-indazole-3-carboxamide] | – | – | EZH2 IC50 ([1]; wild-type EZH2 (rPRC2)): *(10 μM); Y641N EZH2 IC50 [2, 7]: *(10 μM)
Cc1cc(C)c(CNC(=O)c2c(C)n(C(C)c3ccccc3C#N)c3ccccc23)c(=O)[nH]1 (racemic) [Compound 178, (±)-1-(1-(2-cyanophenyl)ethyl)-N-((4,6-dimethyl-2-oxo-1,2-dihydropyridin-3-yl)methyl)-2-methyl-1H-indole-3-carboxamide] | 100 to 1000 | 1000 to 10000 | –
Cc1cc(C)c(CNC(=O)c2c(C)n(Cc3ccccc3)c3ccccc23)c(O)n1 [Compound 119, 1-benzyl-N-((2-hydroxy-4,6-dimethylpyridin-3-yl)methyl)-2-methyl-1H-indole-3-carboxamide] | < 100 | 100 to 1000 | –
Cc1cc(C)c(CNC(=O)c2c(C)n([C@H](C)c3ccccc3)c3nc(C(C)C)ncc23)c(O)n1 [Compound 177, (R)-N-((2-hydroxy-4,6-dimethylpyridin-3-yl)methyl)-2-isopropyl-6-methyl-7-(1-phenylethyl)-7H-pyrrolo[2,3-d]pyrimidine-5-carboxamide] | < 100 | 100 to 1000 | –
CCC(C)n1c(C)c(C(=O)NCc2c(C)cc(C)[nH]c2=O)c2cccnc21 (racemic) [Compound 185, (±)-1-(sec-butyl)-N-((4,6-dimethyl-2-oxo-1,2-dihydropyridin-3-yl)methyl)-2-methyl-1H-pyrrolo[2,3-b]pyridine-3-carboxamide] | 100 to 1000 | 1000 to 10000 | –
COc1cc(C)[nH]c(=O)c1CNC(=O)c1c(C)n(C(C)C(C)OC)c2ccccc12 (single isomer, unassigned) [Compound 308, Trans-(R or S, R or S)-N-((4-methoxy-6-methyl-2-oxo-1,2-dihydropyridin-3-yl)methyl)-1-(3-methoxybutan-2-yl)-2-methyl-1H-indole-3-carboxamide] | 100 to 1000 | 100 to 1000 | –
CC[C@@H](C)n1c(C)c(C(=O)NCc2c(C)cc(C)nc2O)c2cncnc21 [Compound 189, (R)-7-(sec-butyl)-N-((2-hydroxy-4,6-dimethylpyridin-3-yl)methyl)-6-methyl-7H-pyrrolo[2,3-d]pyrimidine-5-carboxamide] | 100 to 1000 | 1000 to 10000 | –
COc1cc(C)[nH]c(=O)c1CNC(=O)c1c(C)n(C(C)C2CCS(=O)(=O)CC2)c2ccccc12 (single isomer, unassigned) [Compound 305, (R or S)-1-(1-(1,1-dioxidotetrahydro-2H-thiopyran-4-yl)ethy1)-N-((4-methoxy-6-methyl-2-oxo-1,2-dihydropyridin-3-yl)methy1)-2-methyl-1H-indole-3-carboxamide] | < 100 | 100 to 1000 | –
Cc1cc(C)c(CNC(=O)c2cn(-c3ccccc3C)c3ccccc23)c(O)n1 [Compound 113, N-((2-hydroxy-4,6-dimethylpyridin-3-yl)methyl)-1-(o-tolyl)-1H-indole-3-carboxamide] | – | – | IC50 [1, 5]: 100 to 1000 nM; IC50 [2, 6]: 1000 to 10000 nM
Cc1cc(C)c(CNC(=O)c2c(C)n(C(C)CN3CCCCC3)c3ncccc23)c(=O)[nH]1 (racemic) [Compound 272, (±)-N-((4,6-dimethyl-2-oxo-1,2-dihydropyridin-3-yl)methyl)-2-methyl-1-(1-(piperidin-1-yl)propan-2-yl)-1H-pyrrolo[2,3-b]pyridine-3-carboxamide] | 1000 to 10000 | – | Y641N EZH2 IC50 [2, 7]: *(10 μM)
Cc1cc(C)c(CNC(=O)c2c(C)n(C(C)c3cccc(C(N)=O)c3)c3ccccc23)c(=O)[nH]1 (single isomer, unassigned) [Compound 225, (R or S)-1-(1-(3-carbamoylphenyl)ethyl)-N-((4,6-dimethyl-2-oxo-1,2-dihydropyridin-3-yl)methyl)-2-methyl-1H-indole-3-carboxamide] | < 100 | < 100 | –
